Experimental data as given in US9562082B2, “Production of glycoproteins with low N-glycolylneuraminic acid (Neu5Gc) content” (LEK Pharmaceuticals D.D., priority 2009, dated 2017).

tested on: Recombinant CHO cells; experiment: Neu5Gc content of glycoprotein secreted by CHO cells cultivated with medium additives (RP-HPLC of DMB-labelled sialic acids); format: cell-based, Chinese hamster; details: NAcMan 5 mM in fermentation medium, darbepoetin alfa
From the text: Recombinant CHO cells expressing high titres of the glycosylated human glycoproteins were cultivated in suspension culture using rich in-house standard medium without additives according to the invention. After 2 weeks of passages, the cells were first harvested and subsequently inoculated into the same medium, however, supplemented with a range of DMSO concentrations from 0.25% to 1.50% (w/v). The effect of DMSO on growth, productivity, degree of sialylation, and Neu5Gc content was studied.
“One factor at the time”-experiments with different DMSO concentrations at 37° C. and 33° C., respectively, were performed at first in an attempt to determine the DMSO concentration and temperature which are best to minimise the Neu5Gc content on the glycoproteins secreted. To study the interaction between the parameters (i) DMSO concentration, (ii) time of DMSO addition, and (iii) time of the temperature shift (from 37° C. to 33° C.), further experiments were performed with the Design-Expert/Design-Ease programme (Stat-Ease, Inc., Minneapolis, Minn., USA) using the response surface method. Parameters (i), (ii), and (iii) were chosen as numeric factors and the axial points were set slightly out of already known ranges in order to cover a wide design space. One replicate on axial points, one replicate on factorial points and 4 centre points were performed. The results were analysed using the Design of Expert (DOE) software (Design-Expert, Version 7.1). The results of the shake flask experiments were confirmed in the Biostat®B bioreactor (Sartorius, B. Braun Biotech International, Germany). Exponentially growing cells were taken from cell culture flasks having a surface area of 225 cm^2 (Corning®Costar®). A Biostat®B bioreactor with a working volume of 5 litres was inoculated with 2×10^5 cells/ml. Cells were cultivated in a batch mode under standard conditions (37° C., pH 7.0, dissolved oxygen concentration (DOT) 50%) in the rich in-house standard medium supplemented with 0.75% (w/v) DMSO.
In order to study the effect of key intermediates of the metabolic pathway leading to the sialylation of the glycoproteins and consequently to the conversion of Neu5Ac to Neu5Gc, a two factorial minimal resolution IV design, which allows for the estimation of the main effects, was established. Said design allowed the determination which of the components NAcMan, NAcGlc, Man, Fru, and Gal has/have an impact on the degree of sialylation and conversion of Neu5Ac to Neu5Gc. To confirm the results from the DOE findings, the production medium was enriched with 8.75 mM NAcMan and 8.75 mM NAcGlc in combination with manganese (Mn^2+) salts in different concentrations, e.g., in the concentrations mentioned earlier in this application.
At the end of the batch culture the cells were removed. The glycoproteins were purified from the remaining harvests by means of immuno-affinity chromatography. Briefly, up to 2 mg of each of the glycoproteins per ml of the chromatographic resin (20-500 ml of the harvest) were loaded onto the column. Elution of the glycoproteins was performed with 0.1 M Na-phosphate buffer, pH 2.5. By adding 1 M Na-phosphate buffer, pH 7.5 (made up by a combination of Na2H-phosphate and NaH2-phosphate), the pH of the eluate was immediately adjusted to 7 and then stored for further analysis at below −60° C.
Sialic acids (Neu5Gc, Neu5Ac, Neu-5,7Ac2, Neu5Gc9Ac, Neu-5,9Ac2, Neu-5,8,9Ac3) were differentiated using highly sensitive RP-HPLC. Enzymatic desialylation with neuraminidase (a2-3,6,8,9-neuraminidase (Sialidase) from Arthrobacter ureafaciens, Roche, USA) released sialic acids. The released sialic acids were labelled with the fluorescent dye 1,2-diamino-4,5-methylenedioxybenzene (DMB). DMB-labelling is non-selective and therefore provides a pool of labelled sialic acid derivates in stoichiometric amounts. Derivates of the DMB-labelled sialic acids were separated on an RP-HPLC column using isocratic elution. […]

For `CC(=O)N[C@@H]1C(O)O[C@H](CO)[C@@H](O)[C@@H]1O` (stereo partly drawn) [NAcMan, N-acetylmannosamine], which “content of Neu5Gc” value is on record?
Its value is “about 0.5%”.

target: T1, CMP-Neu5Ac hydroxylase (Mus musculus, UniProt Q61419); experiment: not given; parameters: concentration or dose not given beside the values; details: in vitro; cited from earlier work
T1 sequence (Q61419 5-577): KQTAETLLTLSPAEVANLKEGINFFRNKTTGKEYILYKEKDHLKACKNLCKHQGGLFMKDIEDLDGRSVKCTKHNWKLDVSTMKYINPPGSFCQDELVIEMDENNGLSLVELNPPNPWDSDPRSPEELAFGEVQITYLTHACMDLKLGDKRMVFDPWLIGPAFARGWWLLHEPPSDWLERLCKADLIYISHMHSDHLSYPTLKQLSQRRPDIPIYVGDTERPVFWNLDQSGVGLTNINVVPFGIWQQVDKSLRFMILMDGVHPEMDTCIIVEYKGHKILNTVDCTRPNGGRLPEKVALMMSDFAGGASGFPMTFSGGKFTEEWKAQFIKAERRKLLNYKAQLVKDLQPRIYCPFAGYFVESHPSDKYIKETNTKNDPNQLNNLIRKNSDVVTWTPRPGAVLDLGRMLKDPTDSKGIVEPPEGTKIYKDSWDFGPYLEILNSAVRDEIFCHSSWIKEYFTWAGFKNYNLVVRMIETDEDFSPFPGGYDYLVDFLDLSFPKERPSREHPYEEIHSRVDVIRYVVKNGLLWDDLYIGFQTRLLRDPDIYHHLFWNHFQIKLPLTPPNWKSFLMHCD

For `O=C(O)CN(CCN(CC(=O)O)CC(=O)O)CC(=O)O` [EDTA], which “inhibition of CMP-Neu5Ac hydroxylase” value is on record?
The value was 60%.

With `[Mn+2]` [Mn^2+] as the molecule, how does the “inhibition of CMP-Neu5Ac hydroxylase” value read?
The value was 50%.

Which “inhibition of CMP-Neu5Ac hydroxylase” value does the source give for `[Cu+2]` [Cu^2+] here?
The value was 80%.

With `O=S(=O)(O)c1cc(O)c(O)c(S(=O)(=O)O)c1` [tiron] as the molecule, how does the “inhibition of CMP-Neu5Ac hydroxylase” value read?
The value was 100%.

Which “inhibition of CMP-Neu5Ac hydroxylase” value does the source give for `[Co+2]` [Co^2+] here?
Its value is 50%.

With `[Ni+3]` [Ni^3+] as the molecule, how does the “inhibition of CMP-Neu5Ac hydroxylase” value read?
Its value is 50%.

With `c1cnc2c(c1)ccc1cccnc12` [phenanthreoline] as the molecule, how does the “inhibition of CMP-Neu5Ac hydroxylase” value read?
Its value is 25%.

Which “inhibition of CMP-Neu5Ac hydroxylase” value does the source give for `[Zn+2]` [Zn^2+] here?
The value was 30%.

Which “inhibition of CMP-Neu5Ac hydroxylase” value does the source give for `O=S(=O)([O-])c1ccc(-c2nnc(-c3ccccn3)nc2-c2ccc(S(=O)(=O)[O-])cc2)cc1.[Na+].[Na+]` [ferozzine] here?
Its value is 25%.

tested on: chickens; experiment: not given; details: rhEPO 1% Neu5Gc, fetuin 7% Neu5Gc, GM3 all Neu5Ac converted into Neu5Gc; cited from earlier work

For “rhEPO: recombinant human erythropoietin produced by Chinese hamster ovary (CHO) cells”, which “titre of antibodies against Neu5Gc in immunised chickens” value is on record?
Its value is “did not produce a significant titre”.

With “fetuin: glycoprotein with a content of Neu5Gc amounting to 7%” as the molecule, how does the “titre of antibodies against Neu5Gc in immunised chickens” value read?
The value was “a significant titre of antibodies against Neu5Gc”.
